Patent US9499493B2, “2,4-pyrimidinediamine compounds and their uses” (Rigel Pharmaceuticals, Inc., priority 2002, dated 2016)
pIC50: −log10 of the molar value. Structures can show the parent of a compound that is named as a salt.

tested on: cultured human mast cells (CHMC); test: CHMC low cell density ionomycin activation: tryptase assay; format: cell-based; conditions: not given

Molecule | pIC50
5-Cyano-N2-(3,4-ethylenedioxyphenyl)-N4-(methoxycarbonylbenzyl)-2,4-pyrimidinediamine [R925820] | < 5.00
5-Cyano-N2-(3-hydroxyphenyl)-N4-(methoxycarbonylbenzyl)-2,4-pyrimidinediamine [R925821] | < 5.00
5-Fluoro N4-(3-hydroxyphenyl)-N2-(5-methyl-4-oxazolyl-2-phenyl)-2,4-pyrimidinediamine [R926779] | < 5.00
CC1Sc2ccc(Nc3ncc(F)c(Nc4cccc(O)c4)n3)cc2NC1=O (racemic) [R909263, (+/−)-5-Fluoro-N4-(3-hydroxyphenyl]-N2-(2-methyl-1,4-benzothiazin-3-on-6-yl)pyrimidinediamine] | < 5.00
COC(=O)C(C)Oc1ccc(Nc2ccnc(Nc3ccc(OC(C)C(=O)OC)cc3)n2)cc1 (racemic) [R926257, (±)-N2,N4-Bis[4-methoxycarbonyhalpha-methypmethyleneoxyphenyl]-2,4-pyrimidinediamine] | 5.12
CNC(=O)COc1cccc(Nc2ncc(F)c(Nc3ccc(OC)c(Cl)c3)n2)c1 [R926891, N4-(3-Chloro-4-methoxyphenyl)-5-fluoro-N2-[3-[(N-methylamino)carbonylmethyleneoxy]phenyl]-2,4-pyrimidinediamine] | < 5.00
CNC(=O)COc1cccc(Nc2ncc(F)c(Nc3ccc(OC)c(F)c3)n2)c1 [R926892, 5-Fluoro-N4-(3-fluoro-4-methoxyphenyl)-N2-[3-[(N-methylamino)carbonylmethyleneoxy]phenyl]-2,4-pyrimidinediamine] | < 5.00
CNC(=O)C(C)(C)Oc1cccc(Nc2ncc(F)c(Nc3cccc(O)c3)n2)c1 [R926913, 5-Fluoro-N4-(3-hydroxyphenyl)-N2-[3-[(N-methylamino)carbonyl-1,1-dimethylmethyleneoxy]phenyl]-2,4-pyrimidinediamine] | < 5.00
CNC(=O)COc1cc(Nc2ncc(F)c(Nc3cccc(O)c3)n2)cc(OCC(=O)NC)c1 [R926930, N2-[3,5-Bis[(N-methylamino)carbonylmethyleneoxy]phenyl]-5-fluoro-N4-(3-hydroxyphenyl)-2,4-pyrimidinediamine] | < 5.00
Cc1noc(COc2ccc(Nc3nc(Nc4ccc5c(c4)OCCO5)ncc3F)cc2)n1 [R935145, N2-(3,4-Ethylenedioxyphenyl)-5-fluoro-N4-[4-(3-methyl-1,2,4-oxadiazol-5-yl)methyleneoxyphenyl]-2,4-pyrimidinediamine] | < 5.00
CNC(=O)C(C)(Oc1cccc(Nc2ncc(F)c(Nc3ccc(OC(C)C)cc3)n2)c1)C(=O)NC [R935196, N2-[3-(1-Bis(N-methylaminocarbonyl)ethoxy)phenyl]-5-fluoro-N4-(4-isopropoxyphenyl)-2,4-pyrimidineamine] | < 5.00
Oc1cccc(Nc2nc(Nc3ccc4[nH]ncc4c3)ncc2F)c1 [R935199, 5-Fluoro-N4-(3-hydroxyphenyl)-N2-(indazoline-5-yl)-2,4-pyrimidinediamine] | < 5.00
CCOC(=O)CCn1ncc2ccc(Nc3nc(Nc4cccc(O)c4)ncc3F)cc21 [R935292, N4-[1-(2-Ethoxycarbonylethyl)indazoline-6-yl]-5-fluoro-N2-(3-hydroxyphenyl)-2,4-pyrimidinediamine] | < 5.00
OCCCn1ncc2ccc(Nc3ncc(F)c(Nc4cccc(O)c4)n3)cc21 [R935293, 5-Fluoro-N4-(3-hydroxyphenyl)-N2-[1-(3-hydroxypropyl)indazoline-6-yl]-2,4-pyrimidinediamine] | < 5.00
COC(=O)c1cc2cc(Nc3ncc(F)c(Nc4ccc5cnn(CCC(=O)O)c5c4)n3)ccc2o1 [R935296, N4-[1-(2-carboxyethyl)indazolne-6-yl]-5-fluoro-N2-(2-methoxycarbonylbenzofur-5-yl)-2,4-pyrimidinediamine] | < 5.00
COC(=O)c1ccc(Cn2cc3ccc(Nc4ncc(F)c(Nc5ccc6c(c5)OCCO6)n4)cc3n2)c(OC)c1 [R935336, N4-(3,4-Ethylenedioxyphenyl)-5-fluoro-N2-[2-(2-methoxy-4-carbomethoxybenzyl)indazoline-6-yl]-2,4-pyrimidinediamine] | < 5.00
CCOC(=O)CCn1ncc2cc(Nc3ncc(F)c(Nc4ccc(OC(F)(F)F)c(Cl)c4)n3)ccc21 [R935354, N4-(3-Chloro-4-trifluoromethoxy-phenyl)-N2-[1-(2-ethoxycarbonylethyl)indazoline-5-yl]-5-fluoro-2,4-pyrimidinediamine] | < 5.00
Cn1ncc2cc(Nc3ncc(F)c(Nc4ccc5c(c4)OC(F)(F)O5)n3)ccc21 [R935357, N4-(3,4-Difluoromethylendioxyphenyl)-5-fluoro-N2-(1-methylindazoline-5-yl)-2,4-pyrimidinediamine] | < 5.00

Molecule | pIC50
Fc1cnc(Nc2ccc3cn[nH]c3c2)nc1Nc1cccc(OC(F)(F)F)c1 [R935363, 5-Fluoro-N2-(indazoline-6-yl)-N4-(3-trifluoromethoxyphenyl)-2,4-pyrimidinediamine] | < 5.00
COc1cc(Nc2ncc(F)c(Nc3ccc(OCc4nc(-c5ccccc5)no4)cc3)n2)cc(OC)c1OC [R935367, 5-Fluoro-N4-[4-(3-phenyl-1,2,4-oxadiazol-5-yl)methyleneoxyphenyl]-N2-(3,4,5-trimethoxyphenyl)-2,4-pyrimidinediamine] | < 5.00
CNC(=O)CCn1ncc2cc(Nc3ncc(F)c(Nc4ccc(OC(F)(F)F)c(Cl)c4)n3)ccc21 [R935369, N4-(3-Chloro-4-trifluoromethoxyphenyl)-5-fluoro-N2-[1-[2(N-methylaminocarbonyl)ethyl]indazoline-5-yl]-2,4-pyrimidinediamine] | < 5.00
Cc1cc(Nc2nc(Nc3cccc(OCCN4CCOCC4)c3)ncc2F)cc(C)c1O [R940255, N4-(3,5-Dimethyl-4-hydroxyphenyl)-5-fluoro-N2-[3-[2-(N-morpholino)ethyleneoxy]phenyl]-2,4-pyrimidinediamine] | < 5.00
Cc1cc(Nc2nc(Nc3cccc(OCCN4CCOCC4)c3)ncc2F)cc(C)c1O [R940256, N4-(3,5-Dimethyl-4-hydroxyphenyl)-5-fluoro-N2-[3-[2-(N-morpholino)ethyloxy]phenyl]-2,4-pyrimidinediamine Hydrogen Chloride Salt] | < 5.00
CC(C)(CO)NC(=O)COc1cccc(Nc2ncc(F)c(Nc3cccc(C(C)(C)C)c3)n2)c1 [R940308, N4-(3-tert-Butylpheny)-5-fluoro-N2-[3-(1,1-dimethyl-2-hydroxyethylaminocarbonylmethyleneoxy)-phenyl]-2,4-pyrimidinediamine] | 5.38
N#CCOc1ccc(Nc2ncc(F)c(Nc3cccc(O)c3)n2)cc1 [R945070, N2-(4-Cyanomethyleneoxyphenyl)-5-fluoro-N4-(3-hydroxyphenyl)-2,4-pyrimidinediamine] | < 5.00
COC(=O)COc1ccc(Nc2ncc(F)c(Nc3cccc(C#N)c3)n2)cc1 [R945110, N4-(3-Cyanophenyl)-5-fluoro-N2-(4-methoxycarbonylmethyleneoxyphenyl)-2,4-pyrimidinediamine] | < 5.00
OCCNc1cccc(Nc2ncc(F)c(Nc3cccc(NCCO)c3)n2)c1 [R950181, N2,N4-Bis(3-hydroxyethyleneaminophenyl)-5-fluoro-2,4-pyrimidinediamine] | < 5.00
O=C(CNc1cccc(Nc2ncc(F)c(Nc3ccc4c(c3)OCCO4)n2)c1)NCCO [R950195, N4-(3,4-Ethylenedioxyphenyl)-5-fluoro-N2-[3-(N-2-hydroxyethyleneamino)carbonylmethyleneaminophenyl]-5-fluoro-2,4-pyrimidinediamine] | < 5.00
CSc1nc2ccc(Nc3ncc(F)c(Nc4cccc(O)c4)n3)cc2s1 [R950212, 5-Fluoro-N4-(3-hydroxyphenyl)-N2-[2-(methylthio)-1,3-benzothiaz-6-yl)-2,4-pyrimidinediamine] | < 5.00
CNC(=O)COc1cccc(Nc2ncc(F)c(Nc3cccc([N+](=O)[O-])c3)n2)c1 [R950261, N4-(3-Nitrophenyl)-5-fluoro-N2-[3-(N-methylamino)carbonylmethyleneoxyphenyl]-2,4-pyrimidinediamine] | < 5.00
CNC(=O)COc1cccc(Nc2ncc(F)c(Nc3cccc(NCCO)c3)n2)c1 [R950265, N4-(3-N-Hydroxyethylaminophenyl)-5-fluoro-N2-[3-(N-methylamino)carbonylmethyleneoxyphenyl]-2,4-pyrimidinediamine] | < 5.00
CNC(=O)COc1cccc(Nc2ncc(F)c(Nc3cccc(N(CCO)CCO)c3)n2)c1 [R950266, N4-(3-Bis(N-hydroxyethyl)aminophenyl)-5-fluoro-N2-[3-(N-methylamino)carbonylmethyleneoxyphenyl]-2,4-pyrimidinediamine] | < 5.00
CNC(=O)COc1cccc(Nc2ncc(F)c(Nc3ccc4c(c3)C(N)CCO4)n2)c1 (stereo not drawn) [R950368, N4-(4-Amino-3,4-dihydro-2H-1-benzopyran-6-yl)-5-fluoro-N2-[3-(N-methylamino)carbonylmethyleneoxyphenyl]-2,4-pyrimidinediamine] | < 5.00
CNC(=O)COc1cccc(Nc2ncc(F)c(Nc3ccc4c(c3)C(N=[N+]=[N-])CCO4)n2)c1 (stereo not drawn) [R950383, N4-(4-Azido-3,4-dihydro-2H-1-benzopyran-6-yl)-5-fluoro-N2-[3-(N-methylamino)carbonylmethyleneoxyphenyl]-2,4-pyrimidinediamine] | < 5.00
CCOc1ccc(Nc2nc(Nc3cccc(OCC(=O)NC)c3)ncc2F)cc1S(=O)(=O)O [R950389, N4-(4-Ethoxy-3-hydroxysulfonylphenyl)-5-fluoro-N2-[3-(N-methylamino)carbonylmethyleneoxyphenyl]-2,4-pyrimidinediamine] | < 5.00
N4-(3,4-Ethylenedioxyphenyl)-5-fluoro-N2-[3-(2-N-methylaminoethyl)phenyl]-2,4-pyrimidinediamine Hydrogen Chloride Salt [R926509] | < 5.00

same assay, conditions: Homo sapiens, Mast cell

Molecule | pIC50
CNC(=O)CNc1cccc(Nc2ncc(F)c(Nc3cccc(O)c3)n2)c1 [R950218] | < 5.00

tested on: cultured human mast cells (CHMC); test: CHMC low cell density IgE activation: tryptase assay; format: cell-based; conditions: anti-IgE
In short: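 Degranulation is read as supernatant tryptase activity, using tryptase substrate incubated 30 min at room temperature. Before this, CHMC at low density (1000-1500 cells/well) rest 1 hr at 37° C and are triggered with anti-IgE for 30 min at 37° C.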

Molecule | pIC50
5-Cyano-N2-(3,4-ethylenedioxyphenyl)-N4-(methoxycarbonylbenzyl)-2,4-pyrimidinediamine [R925820] | < 5.00
5-Cyano-N2-(3-hydroxyphenyl)-N4-(methoxycarbonylbenzyl)-2,4-pyrimidinediamine [R925821] | < 5.00
5-Fluoro N4-(3-hydroxyphenyl)-N2-(5-methyl-4-oxazolyl-2-phenyl)-2,4-pyrimidinediamine [R926779] | < 5.00
CC1Sc2ccc(Nc3ncc(F)c(Nc4cccc(O)c4)n3)cc2NC1=O (racemic) [R909263, (+/−)-5-Fluoro-N4-(3-hydroxyphenyl]-N2-(2-methyl-1,4-benzothiazin-3-on-6-yl)pyrimidinediamine] | 6.54
COC(=O)C(C)Oc1ccc(Nc2ccnc(Nc3ccc(OC(C)C(=O)OC)cc3)n2)cc1 (racemic) [R926257, (±)-N2,N4-Bis[4-methoxycarbonyhalpha-methypmethyleneoxyphenyl]-2,4-pyrimidinediamine] | 5.82
